Reference: patent publication US11912693B2, “Compounds for modulating S1P1 activity and methods of using the same” (TREVENA, INC., priority 2017, dated 2024)

Tests used:
[1] = target: T1, human sphingosine-1-phosphate receptor 1 (S1P1) (Homo sapiens (Human), UniProt P21453); test: β-Arrestin2 recruitment assay (PathHunter), S1P1 CHO-K1 cells; type: cell-based; conditions: for Emax: CHO-K1, efficacy (SPAN) normalized to fingolimod, read-out: hS1P1 B-arrestin2 SPAN; for hS1P1 B-arrestin2 pEC50: β-arrestin2 recruitment, S1P1 CHO-K1 cells
In short: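 Enzyme-fragment complementation read-out: agonist-driven β-arrestin2 binding to ProLink-tagged human S1P1 in stable CHO-K1 cells restores β-galactosidase, measured 1 h at room temperature after a 60 min 37° C. compound incubation. Potency as pEC50, efficacy relative to fingolimod (SPAN).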
Target sequence in this assay (P21453 whole entry, looked up, the tested form may be a part): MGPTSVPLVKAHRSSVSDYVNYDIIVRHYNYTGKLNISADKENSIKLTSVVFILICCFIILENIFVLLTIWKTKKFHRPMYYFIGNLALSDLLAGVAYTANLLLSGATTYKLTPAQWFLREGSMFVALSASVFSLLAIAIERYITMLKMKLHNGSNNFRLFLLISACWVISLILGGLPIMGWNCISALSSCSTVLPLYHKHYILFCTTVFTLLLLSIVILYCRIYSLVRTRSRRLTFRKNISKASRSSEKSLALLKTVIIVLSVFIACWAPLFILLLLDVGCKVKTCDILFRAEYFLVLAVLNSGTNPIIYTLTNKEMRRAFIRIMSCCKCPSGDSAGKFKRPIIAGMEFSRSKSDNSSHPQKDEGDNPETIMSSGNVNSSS
Target sequence in this assay (P32121 whole entry partner, looked up, the tested form may be a part): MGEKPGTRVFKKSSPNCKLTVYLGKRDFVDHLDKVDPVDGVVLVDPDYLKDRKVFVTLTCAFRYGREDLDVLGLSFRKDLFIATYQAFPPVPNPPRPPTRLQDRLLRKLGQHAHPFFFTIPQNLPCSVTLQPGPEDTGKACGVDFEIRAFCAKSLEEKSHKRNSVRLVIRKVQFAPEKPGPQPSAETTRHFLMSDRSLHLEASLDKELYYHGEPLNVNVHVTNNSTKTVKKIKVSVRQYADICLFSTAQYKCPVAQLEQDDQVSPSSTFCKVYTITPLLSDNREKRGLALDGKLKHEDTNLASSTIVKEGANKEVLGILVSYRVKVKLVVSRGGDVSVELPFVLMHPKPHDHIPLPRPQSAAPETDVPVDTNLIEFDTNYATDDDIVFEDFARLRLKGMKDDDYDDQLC

[2] = target: T1, human sphingosine-1-phosphate receptor 1 (S1P1); test: Inhibition of cAMP production (HTRF cAMP HiRange), S1P1 CHO-K1 cells; type: cell-based; conditions: for Emax: CHO-K1, efficacy (SPAN) normalized to fingolimod, read-out: hS1P1 cAMP SPAN; for hS1P1 cAMP pEC50: inhibition of cAMP production, S1P1 CHO-K1 cells
In short: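 CHO-K1 cells stably co-expressing human S1P1 (C-terminal Prolink tag) and EA-β-arrestin2 were grown in AssayComplete Media 6 at 37° C. and 5% CO2, plated, and incubated overnight. Agonist-driven inhibition of intracellular cAMP was read by TR-FRET with the HTRF cAMP HiRange kit on a PheraStar reader. Potency is pEC50, and efficacy (SPAN) is normalized to fingolimod.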
Target sequence in this assay (P21453 whole entry, looked up, the tested form may be a part): as the sequence (P21453 whole entry, looked up, the tested form may be a part) above

Q: With Cc1ccncc1-c1noc(-c2ccc3c(c2)nnn3C2CCOCC2)n1 [Compound 439, 5-[3-(4-methylpyridin-3-yl)-1,2,4-oxadiazol-5-yl]-1-(oxan-4-yl)-1H-1,2,3-benzotriazole] as the compound, how does the Emax [1] read?
A: > 75%

Q: What about the “hS1P1 B-arrestin2 pEC50” value [1] of the same compound?
A: <5

Q: And the Emax [2]?
A: > 75%

Q: And the “hS1P1 cAMP pEC50” value [2]?
A: <6.5

Q: How did the “hS1P1 B-arrestin2 pEC50” value [1] turn out when CC(C)n1nnc2cc(-c3nc(-c4ccc(COc5ccccc5)cc4)no3)ccc21 [Compound 49, 5-{3-[4-(phenoxymethyl)phenyl]-1,2,4-oxadiazol-5-yl}-1-(propan-2-yl)-1H-1,2,3-benzotriazole] was run?
A: <5

Q: What about the “hS1P1 cAMP pEC50” value [2] of the same compound?
A: <6.5

Q: How did the “hS1P1 B-arrestin2 pEC50” value [1] turn out when COc1ccccc1-c1c[nH]c(-c2ccc3c(c2)nnn3C(C)C)c1 [Compound 566, 5-[4-(2-methoxyphenyl)-1H-pyrrol-2-yl]-1-(propan-2-yl)-1H-1,2,3-benzotriazole] was run?
A: <5

Q: And the “hS1P1 cAMP pEC50” value [2]?
A: <6.5

Q: For CC1(C)CC(=O)c2cc(-c3nc(-c4cccnc4)no3)ccc2O1 [Compound 274, 2,2-dimethyl-6-[3-(pyridin-3-yl)-1,2,4-oxadiazol-5-yl]-3,4-dihydro-2H-1-benzopyran-4-one], which Emax [1] is on record?
A: < 75%

Q: What about the “hS1P1 B-arrestin2 pEC50” value [1] of the same compound?
A: >5

Q: And the Emax [2]?
A: > 75%

Q: What about the “hS1P1 cAMP pEC50” value [2] of the same compound?
A: <6.5

Q: CC(C)n1nnc2cc(-c3nc4c(o3)CCCc3ccccc3-4)ccc21 [Compound 434, 4-[1-(propan-2-yl)-1H-1,2,3-benzotriazol-5-yl]-5-oxa-3-azatricyclo[8.4.0.0^2,6]tetradeca-1(14),2(6),3,10,12-pentaene] was tested. Which Emax [1] did it give?
A: > 75%

Q: And the “hS1P1 B-arrestin2 pEC50” value [1]?
A: <5

Q: What about the Emax [2] of the same compound?
A: < 75%

Q: And the “hS1P1 cAMP pEC50” value [2]?
A: <6.5

Q: For COCC1(COC)CC(=O)c2cc(-c3nc(-c4ccncc4)no3)ccc2O1 [Compound 494, 2,2-bis(methoxymethyl)-6-[3-(pyridin-4-yl)-1,2,4-oxadiazol-5-yl]-3,4-dihydro-2H-1-benzopyran-4-one], which “hS1P1 B-arrestin2 pEC50” value [1] is on record?
A: >5

Q: What about the “hS1P1 cAMP pEC50” value [2] of the same compound?
A: <6.5

Q: How did the Emax [1] turn out when Cc1ccccc1-c1noc(-c2ccc3c(c2)nnn3C2CCCCC2)n1 [Compound 245, 1-cyclohexyl-5-[3-(2-methylphenyl)-1,2,4-oxadiazol-5-yl]-1H-1,2,3-benzotriazole] was run?
A: > 75%

Q: What about the “hS1P1 B-arrestin2 pEC50” value [1] of the same compound?
A: >5

Q: And the Emax [2]?
A: > 75%

Q: And the “hS1P1 cAMP pEC50” value [2]?
A: <6.5

Q: Which results are given for CC(C)n1ccc2cc(-c3noc(-c4ccccn4)n3)ccc21 [Compound 397, 3-(1-isopropyl-1H-indol-5-yl)-5-(pyridin-2-yl)-1,2,4-oxadiazole]?
A: hS1P1 B-arrestin2 pEC50 [1]: <5; hS1P1 cAMP pEC50 [2]: <6.5

Q: With c1cc(-c2noc(-c3ccc4c(c3)nnn4C3CCCC3)n2)ccn1 [Compound 174, 1-cyclopentyl-5-[3-(pyridin-4-yl)-1,2,4-oxadiazol-5-yl]-1H-1,2,3-benzotriazole] as the compound, how does the Emax [1] read?
A: > 75%

Q: And the “hS1P1 B-arrestin2 pEC50” value [1]?
A: <5

Q: What about the Emax [2] of the same compound?
A: > 75%

Q: What about the “hS1P1 cAMP pEC50” value [2] of the same compound?
A: >6.5

Q: With Cc1ccccc1-c1cnc(-c2ccc3c(c2)nnn3C(C)C)s1 [Compound 216, 2-(1-isopropylbenzotriazol-5-yl)-5-(o-tolyl)thiazole] as the compound, how does the Emax [1] read?
A: < 75%

Q: And the “hS1P1 B-arrestin2 pEC50” value [1]?
A: <5

Q: And the Emax [2]?
A: < 75%

Q: And the “hS1P1 cAMP pEC50” value [2]?
A: <6.5

Q: What does the source list for N#Cc1cc(-c2nnc(-c3ccc4[nH]c(=O)oc4c3)o2)ccc1NCCF [Compound 487, 2-[(2-fluoroethyl)amino]-5-[5-(2-oxo-2,3-dihydro-1,3-benzoxazol-6-yl)-1,3,4-oxadiazol-2-yl]benzonitrile]?
A: hS1P1 B-arrestin2 pEC50 [1]: >5; hS1P1 cAMP pEC50 [2]: <6.5

Q: What does the source list for CC(C)n1nnc2cc(-c3nnc(-c4ccccc4O)s3)ccc21 [Compound 70, 2-{5-[1-(propan-2-yl)-1H-1,2,3-benzotriazol-5-yl]-1,3,4-thiadiazol-2-yl}phenol]?
A: Emax [1]: < 75%; hS1P1 B-arrestin2 pEC50 [1]: >5; Emax [2]: < 75%; hS1P1 cAMP pEC50 [2]: >6.5

Q: CC(C)n1nnc2cc(-c3c[nH]c(-c4ccccc4)c3)ccc21 [Compound 543, 5-(5-phenyl-1H-pyrrol-3-yl)-1-(propan-2-yl)-1H-1,2,3-benzotriazole] was tested. Which Emax [1] did it give?
A: < 75%

Q: What about the “hS1P1 B-arrestin2 pEC50” value [1] of the same compound?
A: <5

Q: And the Emax [2]?
A: < 75%

Q: What about the “hS1P1 cAMP pEC50” value [2] of the same compound?
A: >6.5

Q: OCCn1nnc2cc(-c3noc(-c4ccccc4Br)n3)ccc21 [Compound 238, 2-(5-(5-(2-bromophenyl)-1,2,4-oxadiazol-3-yl)-1H-benzo[d][1,2,3]triazol-1-yl)ethanol] was tested. Which Emax [1] did it give?
A: < 75%

Q: What about the “hS1P1 B-arrestin2 pEC50” value [1] of the same compound?
A: <5

Q: And the Emax [2]?
A: < 75%

Q: And the “hS1P1 cAMP pEC50” value [2]?
A: <6.5

Q: Which results are given for Cc1ccccc1-c1cc(-c2ccc3c(c2)nnn3C(C)C)n(C)c1 [Compound 517, 5-[1-methyl-4-(2-methylphenyl)-1H-pyrrol-2-yl]-1-(propan-2-yl)-1H-1,2,3-benzotriazole]?
A: Emax [1]: < 75%; hS1P1 B-arrestin2 pEC50 [1]: >5; Emax [2]: < 75%; hS1P1 cAMP pEC50 [2]: <6.5

Q: Which results are given for Cc1nccnc1-c1nc(-c2ccc3c(c2)nnn3C(C)C)no1 [Compound 44, 3-(1-isopropyl-1H-benzo[d][1,2,3]triazol-5-yl)-5-(3-methylpyrazin-2-yl)-1,2,4-oxadiazole]?
A: hS1P1 B-arrestin2 pEC50 [1]: <5; hS1P1 cAMP pEC50 [2]: <6.5

Q: Which results are given for Cc1oc(-c2ccc3c(c2)nnn3C(C)C)nc1-c1ccccc1 [Compound 247, 5-(5-methyl-4-phenyl-1,3-oxazol-2-yl)-1-(propan-2-yl)-1H-1,2,3-benzotriazole]?
A: Emax [1]: < 75%; hS1P1 B-arrestin2 pEC50 [1]: <5; Emax [2]: < 75%; hS1P1 cAMP pEC50 [2]: <6.5

Q: What does the source list for CNc1ccccc1-c1coc(-c2ccc3c(c2)nnn3C(C)C)n1 [Compound 587, N-methyl-2-{2-[1-(propan-2-yl)-1H-1,2,3-benzotriazol-5-yl]-1,3-oxazol-4-yl}aniline]?
A: Emax [1]: < 75%; hS1P1 B-arrestin2 pEC50 [1]: <5; Emax [2]: < 75%; hS1P1 cAMP pEC50 [2]: <6.5

Q: Which “hS1P1 B-arrestin2 pEC50” value [1] does the source give for CC(C)n1nnc2cc(-c3noc(-c4cccc(COc5ccccc5)c4)n3)ccc21 [Compound 23, 3-(1-isopropyl-1H-benzo[d][1,2,3]triazol-5-yl)-5-(3-(phenoxymethyl)phenyl)-1,2,4-oxadiazole] here?
A: <5

Q: What about the “hS1P1 cAMP pEC50” value [2] of the same compound?
A: <6.5

Q: With Cc1cc(C)cc(-c2noc(-c3ccc4c(c3)nnn4C(C)C)n2)c1 [Compound 204, 5-[3-(3,5-dimethylphenyl)-1,2,4-oxadiazol-5-yl]-1-(propan-2-yl)-1H-1,2,3-benzotriazole] as the compound, how does the Emax [1] read?
A: > 75%

Q: And the “hS1P1 B-arrestin2 pEC50” value [1]?
A: >5

Q: What about the Emax [2] of the same compound?
A: > 75%

Q: And the “hS1P1 cAMP pEC50” value [2]?
A: <6.5

Q: CC(C)c1ccc(-c2nc(-c3ccc4c(c3)nnn4C(C)C)no2)cn1 [Compound 25, 3-(1-isopropyl-1H-benzo[d][1,2,3]triazol-5-yl)-5-(6-isopropylpyridin-3-yl)-1,2,4-oxadiazole] was tested. Which “hS1P1 B-arrestin2 pEC50” value [1] did it give?
A: <5

Q: What about the “hS1P1 cAMP pEC50” value [2] of the same compound?
A: <6.5

Q: What does the source list for CCCn1nnc2cc(-c3nc(-c4ccccc4)no3)ccc21 [Compound 160, 5-(3-phenyl-1,2,4-oxadiazol-5-yl)-1-propyl-1H-1,2,3-benzotriazole]?
A: hS1P1 B-arrestin2 pEC50 [1]: <5; hS1P1 cAMP pEC50 [2]: <6.5

Q: CCC1(CC)CC(=O)c2cc(-c3nc(-c4ccncc4)no3)ccc2O1 [Compound 27, 2,2-diethyl-6-[3-(pyridin-4-yl)-1,2,4-oxadiazol-5-yl]-3,4-dihydro-2H-1-benzopyran-4-one] was tested. Which Emax [1] did it give?
A: < 75%

Q: What about the “hS1P1 B-arrestin2 pEC50” value [1] of the same compound?
A: >5

Q: What about the Emax [2] of the same compound?
A: > 75%

Q: What about the “hS1P1 cAMP pEC50” value [2] of the same compound?
A: <6.5

Q: How did the Emax [1] turn out when N#Cc1cc(-c2nc(-c3ccc4c(c3)CCC(=O)N4)no2)ccc1NCC1CC1 [Compound 302, 2-((cyclopropylmethyl)amino)-5-(3-(2-oxo-1,2,3,4-tetrahydroquinolin-6-yl)-1,2,4-oxadiazol-5-yl)benzonitrile] was run?
A: > 75%

Q: What about the “hS1P1 B-arrestin2 pEC50” value [1] of the same compound?
A: >5

Q: And the Emax [2]?
A: > 75%

Q: And the “hS1P1 cAMP pEC50” value [2]?
A: >6.5

Q: CCCCC1(CCCC)CC(=O)c2cc(-c3nc(-c4cccnc4)no3)ccc2O1 [Compound 188, 2,2-dibutyl-6-[3-(pyridin-3-yl)-1,2,4-oxadiazol-5-yl]-3,4-dihydro-2H-1-benzopyran-4-one] was tested. Which Emax [1] did it give?
A: < 75%

Q: And the “hS1P1 B-arrestin2 pEC50” value [1]?
A: <5

Q: What about the Emax [2] of the same compound?
A: < 75%

Q: And the “hS1P1 cAMP pEC50” value [2]?
A: <6.5

Q: Cn1nnc2cc(-c3noc(-c4ccccc4Br)n3)ccc21 [Compound 73, 5-(2-bromophenyl)-3-(1-methyl-1H-benzo[d][1,2,3]triazol-5-yl)-1,2,4-oxadiazole] was tested. Which Emax [1] did it give?
A: < 75%

Q: What about the “hS1P1 B-arrestin2 pEC50” value [1] of the same compound?
A: >5

Q: And the Emax [2]?
A: < 75%

Q: And the “hS1P1 cAMP pEC50” value [2]?
A: <6.5
